Laboratory results: patent US11180452B2, “Methods and compositions for selectively inhibiting pathogenic microbes” (priority 2019, dated 2021)
≈ marks a conversion by molar mass, not a printed value. Where “and” joins values, the source holds several entries; their conditions need not be identical. Identical values can stand only once. Like-named read-outs stand apart in the source and are kept apart here.

Columns and labels:
Bacillus subtilis = Bacillus subtilis MIC / MBC; type: cell-based; conditions: for MBC: Bacillus subtilis NRRL: B-571, minimum bactericidal concentration; for MIC: Bacillus subtilis, Bacillus subtilis (Ehrenberg 1835) Cohn 1872 NRRL: B-571, read-out: MIC
Bacillus thuringiensis = type: cell-based; conditions: Bacillus thuringiensis Berliner ATCC: 10792; for MIC: Bacillus thuringiensis, read-out: MIC
Trichophyton rubrum = experiment: MIC against Trichophyton rubrum; type: cell-based; conditions: Trichophyton rubrum Castellani Sabouraud ATCC: 28188; read-out: MIC
[1] = system: Burkholderia thailandensis Brett et al ATCC: 700388; experiment: microbe, parasite or virus in culture; type: cell-based
Candida glabrata = Candida glabrata MIC / MFC; type: cell-based; conditions: Nakaseomyces glabratus, Candida glabrata #584 (Table 2); for MFC: minimum fungicidal concentration, read-out: MFC; for MIC: read-out: MIC
[2] = system: Francisella tularensis subsp. Holarctica Strain LVSR NR-597; experiment: microbe, parasite or virus in culture; type: cell-based
[3] = system: Francisella tularensis strains; experiment: microbe, parasite or virus in culture; type: cell-based
[4] = Toxicity in mice, body weight over 7 days; type: in vivo, Balb/c mice; conditions: for Animal body weight (kg) Day 0 / Animal body weight (kg) Day 1 / Animal body weight (kg) Day 2 / Animal body weight (kg) Day 3 / Animal body weight (kg) Day 4 / Animal body weight (kg) Day 5 / Animal body weight (kg) Day 6 / Animal body weight (kg) Day 7: mice, IP; for Animal body weight (kg) Day 0: Day 0, individual animals; for Animal body weight (kg) Day 1: Day 1, individual animals; for Animal body weight (kg) Day 2: Day 2, individual animals; for Animal body weight (kg) Day 3: Day 3, individual animals; for Animal body weight (kg) Day 4: Day 4, individual animals; for Animal body weight (kg) Day 5: Day 5, individual animals; for Animal body weight (kg) Day 6: Day 6, individual animals; for Animal body weight (kg) Day 7: Day 7, individual animals
Description: The vehicle is 40% PEG300 solution in 0.9% NaCl. […] Thus, the compounds are useful for in vivo antimicrobial administration.

COc1ccc(Sc2c[nH]c3ccc(Br)cc23)cc1 [Compound 174Q, 5-bromo-3-((4-methoxyphenyl)thio)-1H-indole]
MBC (Bacillus subtilis): > 50 µg/mL
MIC (Bacillus subtilis): 1.56 µg/mL (≈ 4.67 µM)
MBC (Bacillus thuringiensis): 12.5 µg/mL (≈ 37.4 µM)
MIC (Bacillus thuringiensis): 1.56 µg/mL (≈ 4.67 µM)
MIC (Trichophyton rubrum): 2.08 µg/mL (≈ 6.22 µM)
MIC [1]: > 50 µg/mL
MFC (Candida glabrata): > 50 µg/mL
MIC (Candida glabrata): 3.13 µg/mL (≈ 9.36 µM)

Brc1ccc(CSc2c[nH]c3ccc(Br)cc23)cc1 [Compound 174O, 5-bromo-3-((4-bromobenzyl)thio)-1H-indole]
MBC (Bacillus subtilis): > 50 µg/mL
MIC (Bacillus subtilis): 3.13 µg/mL (≈ 7.88 µM)
MBC (Bacillus thuringiensis): 3.13 µg/mL (≈ 7.88 µM)
MIC (Bacillus thuringiensis): 3.13 µg/mL (≈ 7.88 µM)
MIC (Trichophyton rubrum): 1.24 µg/mL (≈ 3.12 µM)
MIC [1]: > 50 µg/mL
MIC (Candida glabrata): > 50 µg/mL

Brc1ccc2[nH]cc(Sc3ccc4ccccc4c3)c2c1 [Compound 174S, 5-bromo-3-(naphthalen-2-ylthio)-1H-indole]
MIC (Bacillus subtilis): > 50 µg/mL
MIC (Bacillus thuringiensis): > 50 µg/mL
MIC (Trichophyton rubrum): > 8.82 µg/mL
MIC [1]: > 50 µg/mL
MIC (Candida glabrata): > 50 µg/mL

COC(=O)c1ccc2[nH]cc(Sc3ccc(Br)cc3)c2c1 [Compound 172G, methyl 3-((4-bromophenyl)thio)-1H-indole-5-carboxylate]
MBC (Bacillus subtilis): 45 µg/mL (≈ 124 µM)
MIC (Bacillus subtilis): 11.3 µg/mL (≈ 31.2 µM)
MBC (Bacillus thuringiensis): > 45 µg/mL
MIC (Bacillus thuringiensis): 11.3 µg/mL (≈ 31.2 µM)
MIC (Trichophyton rubrum): 18.1 µg/mL (≈ 50 µM)
MIC (Candida glabrata): > 50 µg/mL

Brc1ccc2[nH]cc(Sc3ccc(-c4ccccc4)cc3)c2c1 [Compound 174R, 3-([1,1′-biphenyl]-4-ylthio)-5-bromo-1H-indole]
MIC (Bacillus subtilis): > 50 µg/mL
MIC (Bacillus thuringiensis): > 50 µg/mL
MIC (Trichophyton rubrum): > 9.5 µg/mL
MIC [1]: > 50 µg/mL
MIC (Candida glabrata): > 50 µg/mL

Brc1ccc2[nH]cc(SCc3ccccc3)c2c1 [Compound 174K, 3-(benzylthio)-5-bromo-1H-indole]
MBC (Bacillus subtilis): 6.25 µg/mL (≈ 19.6 µM)
MIC (Bacillus subtilis): 3.13 µg/mL (≈ 9.84 µM)
MBC (Bacillus thuringiensis): 6.25 µg/mL (≈ 19.6 µM)
MIC (Bacillus thuringiensis): 3.13 µg/mL (≈ 9.84 µM)
MIC (Trichophyton rubrum): 1.98 µg/mL (≈ 6.22 µM)
MIC [1]: > 50 µg/mL
MFC (Candida glabrata): 12.5 µg/mL (≈ 39.3 µM)
MIC (Candida glabrata): 6.25 µg/mL (≈ 19.6 µM)

Brc1ccc(Sc2c[nH]c3cc(Br)ccc23)cc1 [Compound 174A, 6-bromo-3-((4-bromophenyl)thio)-1H-indole]
MBC (Bacillus subtilis): 6.25 µg/mL (≈ 16.3 µM)
MIC (Bacillus subtilis): 3.13 µg/mL (≈ 8.17 µM)
MBC (Bacillus thuringiensis): 3.13 µg/mL (≈ 8.17 µM)
MIC (Bacillus thuringiensis): 3.13 µg/mL (≈ 8.17 µM)
MIC [2]: 1.56 µg/mL (≈ 4.07 µM)
MIC [1]: > 50 µg/mL
MIC (Candida glabrata): 12.5 µg/mL (≈ 32.6 µM)

Clc1cc2[nH]cc(Sc3ccc(Br)cc3)c2cc1Br [Compound 174AF, 5-bromo-3-((4-bromophenyl)thio)-6-chloro-1H-indole]
MBC (Bacillus subtilis): 50 µg/mL (≈ 120 µM)
MIC (Bacillus subtilis): 4 µg/mL (≈ 9.58 µM)
MBC (Bacillus thuringiensis): 4 µg/mL (≈ 9.58 µM)
MIC (Bacillus thuringiensis): 2 µg/mL (≈ 4.79 µM)
MIC [2]: 4 µg/mL (≈ 9.58 µM)
MIC [1]: > 50 µg/mL
MIC (Candida glabrata): > 50 µg/mL

Nc1ccc(Sc2c[nH]c3ccc(Br)cc23)cc1 [Compound 174Z, 4-((5-bromo-1H-indol-3-yl)thio)aniline]
MBC (Bacillus subtilis): > 10 µg/mL
MIC (Bacillus subtilis): 10 µg/mL (≈ 31.3 µM)
MBC (Bacillus thuringiensis): > 10 µg/mL
MIC (Bacillus thuringiensis): 10 µg/mL (≈ 31.3 µM)
MIC (Trichophyton rubrum): 3.97 µg/mL (≈ 12.4 µM)
MIC [1]: > 50 µg/mL
MIC (Candida glabrata): 25 µg/mL (≈ 78.3 µM)

Nc1cccc(Sc2c[nH]c3ccc(Br)cc23)c1 [Compound 174Y, 3-((5-bromo-1H-indol-3-yl)thio)aniline]
MBC (Bacillus subtilis): > 10 µg/mL
MIC (Bacillus subtilis): 10 µg/mL (≈ 31.3 µM)
MBC (Bacillus thuringiensis): > 10 µg/mL
MIC (Bacillus thuringiensis): 10 µg/mL (≈ 31.3 µM)
MIC (Trichophyton rubrum): 3.97 µg/mL (≈ 12.4 µM)
MIC [1]: > 50 µg/mL
MIC (Candida glabrata): 25 µg/mL (≈ 78.3 µM)

Fc1ccccc1Sc1c[nH]c2ccc(Br)cc12 [Compound 174AU, 5-bromo-3-((2-fluorophenyl)thio)-1H-indole]
MBC (Bacillus subtilis): 2 µg/mL (≈ 6.21 µM)
MIC (Bacillus subtilis): 1 µg/mL (≈ 3.1 µM)
MIC50 [3]: 2 µg/mL (≈ 6.21 µM)
MIC ([3]; read-out: F. tularensis BSL-3 MIC, Strain 100): 8 µg/mL (≈ 24.8 µM)
MIC ([3]; read-out: F. tularensis BSL-3 MIC, strain HN-63): 2 µg/mL (≈ 6.21 µM)
MIC ([3]; read-out: F. tularensis BSL-3 MIC, strain LVS): 2 µg/mL (≈ 6.21 µM)
MIC ([3]; read-out: F. tularensis BSL-3 MIC, strain MA00-2987): 2 µg/mL (≈ 6.21 µM)
MIC ([3]; read-out: F. tularensis BSL-3 MIC, strain MO #1): 1.83 µg/mL (≈ 5.68 µM)
MIC ([3]; read-out: F. tularensis BSL-3 MIC, strain MO #2): 1.67 µg/mL (≈ 5.18 µM)
MIC ([3]; read-out: F. tularensis BSL-3 MIC, strain MO #3): 2 µg/mL (≈ 6.21 µM)
MIC ([3]; read-out: F. tularensis BSL-3 MIC, strain OR-96): 4 µg/mL (≈ 12.4 µM)
MIC ([3]; read-out: F. tularensis BSL-3 MIC, strain SCHU S4): 4 µg/mL (≈ 12.4 µM)
MIC ([3]; read-out: F. tularensis BSL-3 MIC, strain WY-96): 1.5 µg/mL (≈ 4.66 µM)
MIC ([3]; read-out: MAX, highest MIC over the Francisella tularensis strains): 8 µg/mL (≈ 24.8 µM)
MIC ([3]; read-out: MIN, lowest MIC over the Francisella tularensis strains): 1.5 µg/mL (≈ 4.66 µM)
toxicity in mice by body weight ([4]; 6-week-old Balb/c mice, body weight over 7 days, vehicle 40% PEG300 in 0.9% NaCl): did not have significant toxicity
Animal body weight (kg) Day 0 ([4]; 0.1 mg/kg, 0.1 mg/kg): 0.026 kg and 0.023 kg and 0.024 kg
Animal body weight (kg) Day 1 ([4]; 0.1 mg/kg, 0.1 mg/kg): 0.024 kg and 0.022 kg and 0.023 kg
Animal body weight (kg) Day 2 ([4]; 0.1 mg/kg, 0.1 mg/kg): 0.025 kg and 0.022 kg and 0.023 kg
Animal body weight (kg) Day 3 ([4]; 0.1 mg/kg, 0.1 mg/kg): 0.025 kg and 0.022 kg and 0.023 kg
Animal body weight (kg) Day 4 ([4]; 0.1 mg/kg, 0.1 mg/kg): 0.025 kg and 0.022 kg and 0.023 kg
Animal body weight (kg) Day 5 ([4]; 0.1 mg/kg, 0.1 mg/kg): 0.025 kg and 0.023 kg and 0.024 kg
Animal body weight (kg) Day 6 ([4]; 0.1 mg/kg, 0.1 mg/kg): 0.025 kg and 0.022 kg and 0.023 kg
Animal body weight (kg) Day 7 ([4]; 0.1 mg/kg, 0.1 mg/kg): 0.024 kg and 0.022 kg and 0.023 kg
Animal body weight (kg) Day 0 ([4]; 1 mg/kg, 1 mg/kg): 0.026 kg and 0.022 kg and 0.025 kg
Animal body weight (kg) Day 1 ([4]; 1 mg/kg, 1 mg/kg): 0.025 kg (2×) and 0.022 kg
Animal body weight (kg) Day 2 ([4]; 1 mg/kg, 1 mg/kg): 0.026 kg and 0.022 kg and 0.025 kg
Animal body weight (kg) Day 3 ([4]; 1 mg/kg, 1 mg/kg): 0.026 kg and 0.022 kg and 0.025 kg
Animal body weight (kg) Day 4 ([4]; 1 mg/kg, 1 mg/kg): 0.026 kg and 0.023 kg and 0.025 kg
Animal body weight (kg) Day 5 ([4]; 1 mg/kg, 1 mg/kg): 0.026 kg and 0.023 kg and 0.025 kg
Animal body weight (kg) Day 6 ([4]; 1 mg/kg, 1 mg/kg): 0.025 kg (2×) and 0.023 kg
Animal body weight (kg) Day 7 ([4]; 1 mg/kg, 1 mg/kg): 0.026 kg and 0.024 kg and 0.025 kg
Animal body weight (kg) Day 0 ([4]; 10 mg/kg, 10 mg/kg): 0.024 kg (2×) and 0.025 kg
Animal body weight (kg) Day 1 ([4]; 10 mg/kg, 10 mg/kg): 0.023 kg (2×) and 0.024 kg
Animal body weight (kg) Day 2 ([4]; 10 mg/kg, 10 mg/kg): 0.023 kg (2×) and 0.025 kg
Animal body weight (kg) Day 3 ([4]; 10 mg/kg, 10 mg/kg): 0.024 kg and 0.023 kg and 0.025 kg
Animal body weight (kg) Day 4 ([4]; 10 mg/kg, 10 mg/kg): 0.023 kg (2×) and 0.025 kg
Animal body weight (kg) Day 5 ([4]; 10 mg/kg, 10 mg/kg): 0.023 kg (2×) and 0.026 kg
Animal body weight (kg) Day 6 ([4]; 10 mg/kg, 10 mg/kg): 0.022 kg and 0.023 kg and 0.026 kg
Animal body weight (kg) Day 7 ([4]; 10 mg/kg, 10 mg/kg): 0.022 kg and 0.023 kg and 0.026 kg
MBC (Bacillus thuringiensis): 2 µg/mL (≈ 6.21 µM)
MIC (Bacillus thuringiensis): 1 µg/mL (≈ 3.1 µM)
MIC [2]: 0.25 µg/mL (≈ 0.776 µM)
MFC (Candida glabrata): 50 µg/mL (≈ 155 µM)
MIC (Candida glabrata): 3.13 µg/mL (≈ 9.71 µM)

Brc1ccc2[nH]cc(Sc3ccccc3)c2c1 [Compound 174AA, 5-bromo-3-(phenylthio)-1H-indole]
MBC (Bacillus subtilis): 16 µg/mL (≈ 52.6 µM)
MIC (Bacillus subtilis): 4 µg/mL (≈ 13.1 µM)
MBC (Bacillus thuringiensis): 16 µg/mL (≈ 52.6 µM)
MIC (Bacillus thuringiensis): 8 µg/mL (≈ 26.3 µM)
MIC [2]: 4 µg/mL (≈ 13.1 µM)
MIC [1]: > 50 µg/mL
MFC (Candida glabrata): 6.25 µg/mL (≈ 20.5 µM)
MIC (Candida glabrata): 3.13 µg/mL (≈ 10.3 µM)
